Where two headings read alike, the source gives them in different places.
What was measured:
[1] = biological target: serotonin transporter (SERT) (Rattus norvegicus, UniProt P31652); test: Radioligand binding assay with [3H]citalopram on synaptic membrane; conditions: for affinity (Ki value) compared with Fluoxetine: comparison in words on Table 3; for activity / binding affinity relative to 6-nitro-2-piperazin-1-yl-quinoline: ratio of Ki values of Table 3
Procedure: After male SD Rats (250˜350 g) were decapitate by using quillotine, the whole brains were removed. The cerebral cortex were carefully cut to slices and weighed. 0.32 M sucrose which is 10 times of sucrose was added to the slices, and then homogenized twice for 15 seconds using Polytron. After being centrifuged at 4° C. for 10 minutes in 1,000×g, the thus obtained supernatant was re-centrifuged at 20,000×g for 20 minutes and then discarded. The precipitate was isolated, re-suspended in deionized water, was provided with osmotic shock for 10 minutes, and then centrifuged at 80,000×g for 20 minutes. The thus obtained precipitate was suspended in 50 ml of triacetate buffer, re-centrifuged at 48,000×g, and then transferred to a refrigerator. On the day of assay, the cells were thawed on ice, washed by centrifugation (48,000×g, 20 minutes).
The mixture was shaken at 25° C. for 60 minutes, incubated, filtered using a Brandel Cell Harvester through a GF/B Watman filter presoaked in 0.05 polyethylimine. The filters were then washed twice with 5 ml of ice-cold buffer, dried, added with 7 ml of ultima gold scintillation cocktail, and then shaken for 3˜4 hours.

[2] = tested on: ICR mice; test: Assay for anti-depression activity using a tail suspension test; assay type: in vivo; conditions: for anti-depression effect higher than that of control (immobility time): ICR mice, oral
Procedure: The inventors carried out the tail suspension test to evaluate an anti-depression activity of the present compound. ICR mice were divided into 5 groups made up of 8 subjects, and orally dosed with 4-chloro-6-nitro-2-piperazin-1-yl-quinoline dissolved in saline buffer solution in a variety of its concentration 60 minutes prior to the beginning of the experiment. The evaluation of the activity was estimated using administering group, negative, and positive group. After suspending the animal by the tail induced the immobility, the immobility time was measured 6 minutes watching a recorded tape for video. The final data was obtained an average value measured by 3 persons to accurate the data.

[3] = Acute toxicity in rats; assay type: in vivo; conditions: SD, rat, in vivo
Procedure: (§1) 6-week old SPF SD line rats were used in the tests for acute toxicity. 6-chloro-2-piperazin-1-yl-quinoline or 4-chloro-6-nitro-2-piperazin-1-yl-quinoline were suspended in 1 ml saline buffer solution and […] administered to anterior tibialis once to 6 rats per group at the dosage of 500 mg/kg. Death, clinical symptoms, and weight change in rats were observed, hematological tests and biochemical tests of blood performed, and any abnormal signs in the gastrointestinal organs of chest and abdomen checked with eyes during autopsy. […]

[4] = tested on: SPF SD line rats; test: Acute toxicity in rats; assay type: in vivo
Procedure: as §1

[5] = tested on: depression-induced mice; test: Assay for anti-depression activity using a forced swimming test; assay type: in vivo; conditions: orally administered, 50 mg/kg (FIG. 1), p<0.003
Procedure: After 4-chloro-6-nitro-2-piperazin-1-yl-quinoline was dissolved in dimethylsulfoxide in a variety of concentrations and injected to depression-induced mice, the time of immobility was measured. The immobility time may be evaluated by measuring the effect against anti-depression. Because immobility means a helplessness of the mice, in this case, slow immobility should be understood to reduce depression.
4-chloro-6-nitro-2-piperazin-1-yl-quinoline was orally administered after 23 hours from the first treatment, subsequently, after 24 hours, the animals were placed in the cage to carry out the second treatment and the immobility time was measured for 5 minutes. The immobility caused by the second treatment was recorded while watching video tape. In order to make an objective observation, we made an average of the results of make than 3 people.

[6] = biological target: SERT (Homo sapiens, UniProt P31645); conditions: known values, background art; read-out: binding affinity (Ki) to SERT; cited from earlier work
Sequence of SERT (P31645 whole entry, species assumed): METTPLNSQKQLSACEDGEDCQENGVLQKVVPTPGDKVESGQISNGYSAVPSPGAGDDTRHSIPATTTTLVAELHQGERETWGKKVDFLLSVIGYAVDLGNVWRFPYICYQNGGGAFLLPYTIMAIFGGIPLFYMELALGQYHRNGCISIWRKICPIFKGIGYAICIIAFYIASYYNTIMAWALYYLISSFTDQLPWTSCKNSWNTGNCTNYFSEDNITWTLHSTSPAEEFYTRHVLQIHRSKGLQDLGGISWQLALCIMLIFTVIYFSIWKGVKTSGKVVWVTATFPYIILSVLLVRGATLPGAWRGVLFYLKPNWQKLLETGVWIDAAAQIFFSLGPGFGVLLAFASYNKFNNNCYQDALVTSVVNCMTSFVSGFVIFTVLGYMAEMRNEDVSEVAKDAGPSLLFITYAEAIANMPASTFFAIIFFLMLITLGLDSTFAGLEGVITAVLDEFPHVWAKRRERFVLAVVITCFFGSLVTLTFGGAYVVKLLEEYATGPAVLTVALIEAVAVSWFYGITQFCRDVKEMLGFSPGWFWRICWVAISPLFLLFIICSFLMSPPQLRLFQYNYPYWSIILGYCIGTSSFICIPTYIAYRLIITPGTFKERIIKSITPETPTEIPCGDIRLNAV

[7] = 1 nM [3H]citalopram, rat cerebral cortex synaptic membrane, 25° C., 60 minutes

Sequence of serotonin transporter (SERT) (P31652 whole entry): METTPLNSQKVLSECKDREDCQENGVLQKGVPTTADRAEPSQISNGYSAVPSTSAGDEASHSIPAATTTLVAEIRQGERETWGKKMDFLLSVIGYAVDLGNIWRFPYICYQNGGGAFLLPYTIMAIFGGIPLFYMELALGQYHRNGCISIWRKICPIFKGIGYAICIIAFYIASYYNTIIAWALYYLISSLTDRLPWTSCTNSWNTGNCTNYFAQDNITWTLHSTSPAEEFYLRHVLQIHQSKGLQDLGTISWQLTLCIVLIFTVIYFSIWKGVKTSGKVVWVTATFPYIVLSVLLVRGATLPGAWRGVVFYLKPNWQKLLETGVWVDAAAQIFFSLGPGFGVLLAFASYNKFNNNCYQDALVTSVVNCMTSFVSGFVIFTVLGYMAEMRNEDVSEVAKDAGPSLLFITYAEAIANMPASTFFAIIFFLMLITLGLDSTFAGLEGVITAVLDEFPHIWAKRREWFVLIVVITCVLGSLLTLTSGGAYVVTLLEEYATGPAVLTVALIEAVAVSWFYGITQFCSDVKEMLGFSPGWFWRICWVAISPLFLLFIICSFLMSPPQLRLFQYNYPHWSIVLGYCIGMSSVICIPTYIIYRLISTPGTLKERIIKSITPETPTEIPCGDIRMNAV

SMILES | Ki [1, 7] [nM] | Ki [1] [nM] | further results
Ic1ccc2nc(N3CCNCC3)ccc2c1 [Example 6, 6-iodo-2-piperazin-1-yl-quinoline] | 6.6 ± 0.52 | – | –
C=Cc1cc(N2CCNCC2)nc2ccc([N+](=O)[O-])cc12 [Example 13, 6-nitro-2-(piperazin-1-yl)-4-vinylquinoline] | – | 1.42 | –
Brc1ccc2nc(N3CCNCC3)ccc2c1 [Example 7, 6-bromo-2-piperazin-1-yl-quinoline] | 0.91 ± 0.07 | – | –
CCc1cc2cc([N+](=O)[O-])ccc2nc1N1CCNCC1 [Example 2, 3-ethyl-6-nitro-2-(piperazin-1-yl)quinoline] | – | 0.36 ± 0.02 | affinity (Ki value) compared with Fluoxetine [1]: exceed that of Fluoxetine
O=[N+]([O-])c1ccc2nc(N3CCNCC3)c(CCCCl)cc2c1 [Example 4, 3-(3-chloropropyl)-6-nitro-2-piperazin-1-yl-quinoline] | – | 1.08 ± 0.17 | –
O=[N+]([O-])c1ccc2nc(N3CCNCC3)cc(Cl)c2c1 [Example 10, 4-chloro-6-nitro-2-(piperazin-1-yl)quinoline] | – | 0.017 | effect higher than that of the control (immobility time) ([2]; FIG. 2B, 1 mg/kg or 10 mg/kg, anova p<0.005): about 65%; anti-depression effect higher than that of control (immobility time) ([2]; 5 mg/kg): 56%; anti-depression effect higher than that of control (immobility time) ([2]; 50 mg/kg): 60%; ED50 ([2]; Mus musculus, expected from evenness of effect from 1 to 50 mg/kg): < 1 mg/kg; LD50 ([3]; 500 mg/kg): > 500 mg/kg; acute toxicity observations (death, clinical symptoms, weight change) ([4]; rat, in vivo, 500 mg/kg): did not cause any specific clinical symptoms, weight change, or death; anti-depression effect higher than that of the control (immobility time) [5]: 30%; activity / binding affinity relative to 6-nitro-2-piperazin-1-yl-quinoline [1]: 10 times; activity / binding affinity relative to 6-nitro-2-piperazin-1-yl-quinoline ([1]; listed as 4-chloro-6-nitro-2-piperazin-1-yl-quinoline): over ten times
CC1CN(c2ccc3cc([N+](=O)[O-])ccc3n2)CCN1 (stereo not shown) [Example 15, 2-(3-methylpiperazin-1-yl)-6-nitroquinoline] | 22.2 ± 1.7 | – | –
O=[N+]([O-])c1ccc2nc(N3CCNCC3)ccc2c1 [6-nitro-2-piperazin-1-yl-quinoline, 6-nitro-2-(piperazin-1-yl)quinoline, reference compound] | 0.17 ± 0.03 | – | Ki [6]: 0.018 nM
O=[N+]([O-])c1ccc2nc(N3CCCNCC3)ccc2c1 [Example 17, 2-[1,4]diazepin-1-yl-6-nitroquinoline] | 1.9 ± 0.15 | – | –
O=[N+]([O-])c1ccc2nc(N3CCNCC3)cc(-c3ccco3)c2c1 [Example 14, 4-(2-furanyl)-6-nitro-2-(piperazin-1-yl)quinoline] | – | 6.4 | –
Clc1ccc2nc(N3CCNCC3)ccc2c1 [Example 8, 6-chloro-2-piperazin-1-yl-quinoline] | 1.68 ± 0.13 | – | LD50 ([3]; rats, single administration of 500 mg/kg, read-out: estimated LD50): > 500 mg/kg; acute toxicity observations (death, clinical symptoms, weight change) ([4]; rats, single administration of 500 mg/kg, 6 rats per group): did not cause any specific clinical symptoms, weight change, or death
CNCCN(C)c1ccc2cc([N+](=O)[O-])ccc2n1 [Example 16, 2-(N-methyl-N-(2-N′-methylamino)ethyl)amino-6-nitroquinoline] | 8.43 ± 0.45 | – | –
Cc1cc2cc([N+](=O)[O-])ccc2nc1N1CCNCC1 [Example 1, 3-methyl-6-nitro-2-(piperazin-1-yl)quinoline] | – | 8.45 ± 0.62 | –
O=[N+]([O-])c1ccc2nc(N3CCNCC3)c(Br)cc2c1 [Example 9, 3-bromo-6-nitro-2-(piperazin-1-yl)quinoline] | 12.6 ± 1.14 | – | –
O=[N+]([O-])c1ccc2nc(N3CCNCC3)c(CCCF)cc2c1 [Example 5, 3-(3-fluoropropyl)-6-nitro-2-piperazin-1-yl-quinoline] | 0.32 ± 0.01 | – | affinity (Ki value) compared with Fluoxetine [1]: exceed that of Fluoxetine
CCCc1cc2cc([N+](=O)[O-])ccc2nc1N1CCNCC1 [Example 3, 6-nitro-2-(piperazin-1-yl)-3-propylquinoline] | – | 0.26 ± 0.01 | affinity (Ki value) compared with Fluoxetine [1]: exceed that of Fluoxetine

Reference: patent publication US20050165006A1, “Quinoline derivatives, their preparation and pharmaceutical compositions comprising the same” (priority 2002, published 2005)
